From patent US9084395B2, “Method to arrest growth of invasive species' seeds while in non-natural environment prior to transport” (priority 2012, dated 2015)
Like-named read-outs stand apart in the source and are kept apart here.

What was measured:
[1] = test system: whitetop (Cardaria draba) seeds; experiment: Protocol 1 clean seed dip treatment and germination test, whitetop; assay type: in vivo; conditions: non-soil environment
Protocol: (§1) All seeds for a Protocol 1 Test were removed from the flower parts and used as clean seeds. A treatment consisted of 100 seeds with four replications for a total of at least 400 seeds per treatment. In some cases extra seeds were treated to accommodate additional germination tests, if needed. In lots of 100, seeds were first rinsed with water to simulate a wash treatment. These pre-wetted seeds were then dipped for one minute in one of the Treatment Rinse percent solutions per volume as show below. Three quality glyphosate products were used. […] The inert ingredients typically comprise tallow amine, lecithin, algaecide and purified water. […] The surfactants added to the percent solution were a penetrator, comprising methylated seed oil, and a spreader, comprising polyether-polymethylsiloxane-copolymer polyether or silicone polyether copolymer.
(§2) Seeds were stirred during the dip to assure all seeds were exposed to the solution. Treated seeds were allowed to air dry with the time to dry recorded. Three main seed types were used in the Protocol 1 Test: whitetop (Cardaria draba), spotted knapweed (Centauria maculosa), and diffuse knapweed (Centauria. diffusa). Two additional seed types were used for one treatment each, Russian thistle (Salsola tragus) and Scotch thistle (Onopordum acanthium).
(§3) When seeds were thoroughly dry after treatment they were packaged and sent for germination testing. […]

[2] = test system: diffuse knapweed (Centauria. diffusa) seeds; experiment: Protocol 1 clean seed dip treatment and germination test, diffuse knapweed; assay type: in vivo; conditions: non-soil environment
Protocol: as §1, §2, §3

[3] = test system: Russian thistle (Salsola tragus) seeds; experiment: Protocol 1 clean seed dip treatment and germination test, Russian thistle; assay type: in vivo; conditions: non-soil environment
Protocol: as §1, §2, §3

[4] = test system: Scotch thistle (Onopordum acanthium) seeds; experiment: Protocol 1 clean seed treatment, germination test in soil environment, Scotch thistle; assay type: in vivo
Protocol: as §1, §2, §3

[5] = test system: spotted knapweed (Centauria maculosa) seeds; experiment: Protocol 1 clean seed dip treatment and germination test, spotted knapweed; assay type: in vivo; conditions: non-soil environment
Protocol: as §1, §2, §3

[6] = test system: Scotch thistle (Onopordum acanthium) seeds; conditions: soil application of glyphosate; cited from earlier work

Question: For `O=C(O)CNCP(=O)(O)O` [glyphosate], which “control, considering treated seeds that may grow to reproductive maturity” value (“control … to reproductive maturity” for short) [1] is on record?
Answer: The value was 95%.

Question: What about the “control … to reproductive maturity” value [2] of the same molecule?
Answer: Its value is 99%.

Question: What about the “control … to reproductive maturity” value [3] of the same molecule?
Answer: The value was 72%.

Question: What about the “control … to reproductive maturity” value ([4]; Scotch thistle, non-soil environment) of the same molecule?
Answer: Its value is 100%.

Question: And the “control of Scotch thistle” value ([4]; direct application of glyphosate to the seed, then placed in soil to germinate)?
Answer: The value was “controlled”.

Question: And the “control … to reproductive maturity” value [5]?
Answer: Its value is 100%.

Question: And the “control of Scotch thistle” value [6]?
Answer: The value was “not controlled”.
